Test results taken from US20200339544A1 (JOINT STOCK COMPANY "BIOCAD", priority 2017, published 2020).
Counter-ions that a name gives are not always drawn. Like-named read-outs stand apart in the source and are kept apart here.

What was measured:
[1] = Chemical stability in human blood plasma; format: in vitro ADME; conditions: pooled human blood plasma; 10 μm; 4 hours at 37° C.; substance amount remaining
Outline: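 Pooled plasma from ten healthy donors was spiked to 10 μM from a 10 mM DMSO stock and held 4 h at 37 °C. After acetonitrile protein precipitation, HPLC peak areas before and after incubation gave the percentage of compound remaining.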

[2] = test system: H1975 (lung adenocarcinoma, DM, L828R/T790M); assay: Antiproliferative activity on H1975 cells (Alamar Blue); format: cell-based; conditions: for IC50: Homo sapiens, NCI-H1975, H1975 cells; for SI IC50(A549)/IC50(DM): selectivity index, A549 vs H1975 cells
Outline: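 H1975 cells (15*10^3/well) attached 16-18 h in RPMI-1640 with 2% FBS, then exposed to compounds (≤1% DMSO final) for 72 h at 37 °C. Viability by Alamar Blue fluorescence (Ex 540/Em 590 nm) after 3-5 h; IC50 from four-parameter logistic fit.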

[3] = General cytotoxicity on HepG2 cells; format: cell-based; conditions: human; general cytotoxicity, HepG2 cells, 72 hours, average of several tests
Outline: (§1)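 HepG2 cells seeded at 2*10^4 cells per well and compounds added in DMEM with 2% FBS for 72 h at 37 °C. Viability read with Alamar Blue and CC50 derived as for IC50. Therapeutic index taken as HepG2 CC50 over H1975 IC50.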

HepG2 cells = assay: General cytotoxicity on HepG2 cells; format: cell-based; conditions: therapeutic index, CC50 HepG2 / IC50 H1975
Outline: as §1

[4] = Permeability through monolayer of Caco-2 cells; format: in vitro ADME; conditions: human, Caco-2 monolayer; for Papp A→B at 2 h, 10 µM: pH 6.5 upper / pH 7.4 lower, 2 h at 37° C.; for efflux ratio at 2 h, 10 µM: Papp B-A/Papp A-B
Excerpt: 2) Assessment of permeability through monolayer of Caco-2 cells.
Assessment of permeability through the monolayer of Caco-2 cells allows to evaluate the ability of the candidate compounds to penetrate through biological membranes by active and passive transport.
Caco-2, the cells of the intestinal epithelium, had been cultured in transwell plate inserts with the filters (with pores of 0.4 μm, BD Falcon with High Density) for 21 days, and then the integrity of the monolayer were estimated with Lucifer Yellow (Sigma-Aldrich, USA) by standard protocol. When setting the A→B transfer (“intestinal lumen”—“blood stream” transfer), solutions of test substances were added in a buffer with pH 6.5 (HBSS, 10 mM HEPES, 15 mM glucose solution) with the concentration of 10 μM into the upper chamber; the lower chamber was filled with a buffer with pH 7.4 (HBSS, 10 mM HEPES, 15 mM Glucose, 1% BSA). When setting B→A transfer (“blood stream”—“intestinal lumen” transfer), the upper chamber was filled with the buffer with pH 6.5, and solutions of the test substances were added in the buffer with pH 7.4 at the concentration of 10 μM in the lower chamber. Propranolol was used as a control substance (as it has high permeability).
After incubating for 2 h at 37° C. under 5% CO2, the amounts of test substances were determined in the upper and lower chambers by HPLC using Agilent1200 chromatograph (Agilent, USA) with preliminary protein precipitation with acetonitrile. We used gradient elution (1 mL/min flow rate). We determined the areas of peaks corresponding to the compounds. On the basis of peak areas in the calibration standards we determined the concentration of compound in the initial solution and in the samples from the wells of the upper and lower chambers. Papp, permeability through the cell layer, was calculated using the following formula:
Papp=(C(t)*V)/(C(0)*t*Area), wherein
The value was calculated with the following formula:
efflux=Papp B-A/Papp A-B, wherein • Papp A-B—the volume of permeability in A→B test; • Papp B-A—he volume of permeability in B→A test.

[5] = average values obtained in several tests, Table 16, read-out: H1975 (DM) IC50
[6] = antiproliferative test, Table 15, read-out: IC50 H1975 (DM)

Compound: C=CC(=O)Nc1cc(Nc2cc(C(=O)c3ccc(N4CC(OC)C4)cc3)ccn2)c(OC)cc1N(C)CCN(C)C (racemic) [EGFR_3365_53, N-(2-((2-(dimethylamino)ethyl)(methyl)amino)-4-methoxy-5-((4-(4-(3-methoxyazetidin-1-yl)benzoyl)pyridin-2-yl)amino)phenyl)acrylamide]
- Stability in blood plasma, % [1]: 91.8%
- IC50 [2, 5]: 44.9 nM
- IC50 [2, 6]: 44.9 nM
- SI IC50(A549)/IC50(DM) [2]: 183
- CC50 at 72 h [3]: 20600 nM
- TI, CC50/IC50 (HepG2 cells): 457

Compound: C=CC(=O)Nc1cc(Nc2cc(C(=O)c3ccc(N(C)C)cc3)ccn2)c(OC)cc1N(C)CCN(C)C.O=C(O)C(F)(F)F [EGFR_3365_4, N-(5-((4-(4-(dimethylamino)benzoyl)pyridin-2-yl)amino)-2-((2-(dimethylamino)ethyl) (methyl)amino)-4-methoxyphenyl)acrylamide 2,2,2-trifluoroacetate]
- Papp A→B at 2 h, 10 µM [4]: 2.86 ×10⁻⁶ cm/s
- efflux ratio at 2 h, 10 µM [4]: 2
- IC50 [2, 5]: 35.3 nM
- IC50 [2, 6]: 35.3 nM
- SI IC50(A549)/IC50(DM) [2]: 152.17
- CC50 at 72 h [3]: 14800 nM
- TI, CC50/IC50 (HepG2 cells): 419

Compound: C=CC(=O)Nc1cc(Nc2nccc(C(=O)c3ccc(OCc4ccccc4)cc3)n2)c(OC)cc1N(C)CCN(C)C [EGFR_3365_16, N-(5-((4-(4-(benzyloxy)benzoyl)pyrimidin-2-yl)amino)-2-((2-(dimethylamino)ethyl)(methyl)amino)-4-methoxyphenyl)acrylamide]
- Stability in blood plasma, % [1]: 83.5%
- IC50 [2, 5]: 53.7 nM
- IC50 [2, 6]: 53.7 nM
- SI IC50(A549)/IC50(DM) [2]: 41.10
- CC50 at 72 h [3]: 5790 nM
- TI, CC50/IC50 (HepG2 cells): 108

Compound: C=CC(=O)Nc1cc(Nc2nccc(C(=O)c3ccc(Oc4ccccc4)cc3)n2)c(OC)cc1N(C)CCN(C)C [EGFR_3365_17, N-(2-((2-(dimethylamino)ethyl)(methyl)amino)-4-methoxy-5-((4-(4-phenoxybenzoyl)pyrimidin-2-yl)amino)phenyl)acrylamide]
- Stability in blood plasma, % [1]: 97.0%
- IC50 [2, 5]: 393 nM
- IC50 [2, 6]: 394 nM
- SI IC50(A549)/IC50(DM) [2]: 6.08
- CC50 at 72 h [3]: 6320 nM
- TI, CC50/IC50 (HepG2 cells): 16

Compound: C=CC(=O)Nc1cc(Nc2nccc(C(=O)c3ccc(OCCC)cc3)n2)c(OC)cc1N(C)CCN(C)C [EGFR_3365_30, N-(2-((2-(dimethylamino)ethyl)(methyl)amino)-4-methoxy-5-((4-(4-propoxybenzoyl)pyrimidin-2-yl)amino)phenyl)acrylamide]
- Papp A→B at 2 h, 10 µM [4]: 4.36 ×10⁻⁶ cm/s
- efflux ratio at 2 h, 10 µM [4]: 0.5
- IC50 [2, 5]: 16.4 nM
- IC50 [2, 6]: 16.4 nM
- SI IC50(A549)/IC50(DM) [2]: 337.72
- CC50 at 72 h [3]: 10900 nM
- TI, CC50/IC50 (HepG2 cells): 666

Compound: C=CC(=O)Nc1cc(Nc2cc(C(=O)c3ccc(OC)cc3)ccn2)c(OC)cc1N(C)CCN(C)C [EGFR_3365_51, N-(2-((2-(dimethylamino)ethyl)(methyl)amino)-4-methoxy-5-((4-(4-methoxybenzoyl)pyridin-2-yl)amino)phenyl)acrylamide]
- Papp A→B at 2 h, 10 µM [4]: 3.2 ×10⁻⁶ cm/s
- efflux ratio at 2 h, 10 µM [4]: 1.7
- IC50 [2, 5]: 33.8 nM
- IC50 [2, 6]: 33.8 nM
- SI IC50(A549)/IC50(DM) [2]: 340
- CC50 at 72 h [3]: 20900 nM
- TI, CC50/IC50 (HepG2 cells): 620

Compound: C=CC(=O)Nc1cc(Nc2cc(C(=O)c3ccc(OCC)cc3)ccn2)c(OC)cc1N(C)CCN(C)C [EGFR_3365_52, N-(2-((2-(dimethylamino)ethyl)(methyl)amino)-5-((4-(4-ethoxybenzoyl)pyridin-2-yl)amino)-4-methoxyphenyl) acrylamide]
- Papp A→B at 2 h, 10 µM [4]: 3 ×10⁻⁶ cm/s
- efflux ratio at 2 h, 10 µM [4]: 1.2
- IC50 [2, 5]: 66.1 nM
- IC50 [2, 6]: 66.1 nM
- SI IC50(A549)/IC50(DM) [2]: 164
- CC50 at 72 h [3]: 15600 nM
- TI, CC50/IC50 (HepG2 cells): 237

Compound: C=CC(=O)Nc1cc(Nc2cc(C(=O)c3ccc(N4CCN(C)CC4)cc3)ccn2)c(OC)cc1N(C)CCN(C)C [EGFR_3365_55, N-(2-((2-(dimethylamino)ethyl)(methyl)amino)-4-methoxy-5-((4-(4-(4-methylpiperazin-1-yl)benzoyl)pyridin-2-yl)amino)phenyl)acrylamide]
- Stability in blood plasma, % [1]: 84.8%
- IC50 [2, 5]: 211 nM
- IC50 [2, 6]: 211 nM
- SI IC50(A549)/IC50(DM) [2]: 55
- CC50 at 72 h [3]: 13300 nM
- TI, CC50/IC50 (HepG2 cells): 63

Compound: C=CC(=O)Nc1cc(Nc2nccc(C(=O)c3ccc(N4CCN(C)CC4)cc3)n2)c(OC)cc1N(C)CCN(C)C [EGFR_3365_62, N-(2-((2-(dimethylamino)ethyl)(methyl)amino)-4-methoxy-5-((4-(4-(4-methylpiperazin-1-yl)benzoyl)pyrimidin-2-yl)amino)phenyl)acrylamide formate]
- Stability in blood plasma, % [1]: 98.4%
- IC50 [2, 5]: 22.8 nM
- IC50 [2, 6]: 60.8 nM
- SI IC50(A549)/IC50(DM) [2]: 539
- CC50 at 72 h [3]: 31100 nM
- TI, CC50/IC50 (HepG2 cells): 512

Compound: C=CC(=O)Nc1cc(Nc2nccc(C(=O)c3ccc(OCC)cc3OCC)n2)c(OC)cc1N(C)CCN(C)C [EGFR_3365_68, N-(5-((4-(2,4-diethoxybenzoyl)pyrimidin-2-yl)amino)-2-((2-(dimethylamino)ethyl) (methyl)amino)-4-methoxyphenyl)acrylamide]
- Stability in blood plasma, % [1]: 78.4%
- IC50 [2, 5]: 34.6 nM
- IC50 [2, 6]: 34.6 nM
- SI IC50(A549)/IC50(DM) [2]: 235
- CC50 at 72 h [3]: 28600 nM
- TI, CC50/IC50 (HepG2 cells): 825

Compound: C=CC(=O)Nc1cc(Nc2nccc(C(=O)c3ccc(OC)cc3OC)n2)c(OC)cc1N(C)CCN(C)C [EGFR_3365_69, N-(5-((4-(2,4-dimethoxybenzoyl)pyrimidin-2-yl)amino)-2-((2-(dimethylamino)ethyl)(methyl)amino)-4-methoxyphenyl)acrylamide]
- Stability in blood plasma, % [1]: 100.0%
- IC50 [2, 5]: 7.9 nM
- IC50 [2, 6]: 7.93 nM
- SI IC50(A549)/IC50(DM) [2]: >1261
- CC50 at 72 h [3]: 51900 nM
- TI, CC50/IC50 (HepG2 cells): 6549

Compound: C=CC(=O)Nc1cc(Nc2cc(C(=O)c3ccc(-c4cnn(C)c4)cc3)ccn2)c(OC)cc1N(C)CCN(C)C [EGFR_3365_85, N-(2-((2-(dimethylamino)ethyl)(methyl)amino)-4-methoxy-5-((4-(4-(1-methyl-1H-pyrazol-4-yl)benzoyl)pyridin-2-yl)amino)phenyl) acrylamide]
- Stability in blood plasma, % [1]: 100.0%
- IC50 [2, 5]: 138 nM
- IC50 [2, 6]: 138 nM
- SI IC50(A549)/IC50(DM) [2]: 10
- CC50 at 72 h [3]: 21200 nM
- TI, CC50/IC50 (HepG2 cells): 153
